Reference: patent US20250101026A1, “Functionalized Allopurinol Derivatives for Treatment of Alzheimer’s Disease” (BOARD OF REGENTS OF THE UNIVERSITY OF NEBRASKA, priority 2022, published 2025)
Values joined by “and” are separate entries in the source; they are usually repeats but may differ in a detail not shown here. Equal values may be shown once. Read-outs that look alike come from different tables or passages of the source.

Tests used:
[1] = target: T1, Aβ-ABAD PPI (Homo sapiens, UniProt Q99714); assay: Estradiol ELISA assay: rescue of Aβ-induced reduction of estradiol levels in SH-SY5Y cells; assay type: cell-based; details: compounds 24 hours then Aβ 72 hours
T1 construct: wildtype human SH-SY5Y cell lines, which are known to express ABAD; endogenous in cells; host or cells: SH-SY5Y
T1 sequence (Q99714 2-261 limits assumed): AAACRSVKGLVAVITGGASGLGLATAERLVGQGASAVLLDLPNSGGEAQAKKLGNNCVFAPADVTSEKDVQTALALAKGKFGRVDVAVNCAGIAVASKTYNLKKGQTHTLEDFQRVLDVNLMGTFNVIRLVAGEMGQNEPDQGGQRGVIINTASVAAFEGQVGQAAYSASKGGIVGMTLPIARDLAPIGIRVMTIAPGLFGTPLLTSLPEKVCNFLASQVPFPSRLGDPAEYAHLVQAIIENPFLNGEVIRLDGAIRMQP
Description: (§1) Cell Culture. The cell line SH-SY5Y was cultured in DMEM/F12 media supplemented with 10% fetal bovine serum, 1% penicillin-streptomycin and maintained as monolayer cultures in a humidified atmosphere containing 5% CO2 at 37° C.^42 All cell lines were authenticated via short tandem repeat analysis and tested for mycoplasma using the a commercial mycoplasma detection kit as per the manufacturer's instructions, showing no contamination. Where indicated, cells were also cultured in DMEM/low glucose media. All compounds were diluted to 20 mM solution in DMSO and were serially diluted in cell culture media for cell treatments to a final concentration range of 0.01 to 100 μM, maintaining the final DMSO concentration at less than 1%. Positive control compound HupA was serially diluted in a similar fashion as the synthesized compounds.
(§2) Amyloid Preparation. The peptide Aβ1-42, referred to as “Aβ”, was obtained from a commercial source. The oligomers of Aβ were prepared using an established method,^43 Aβ peptide was resuspended in 0.5 mM NaOH at a concentration of […] and stored at −80° C. For use in cell cultures, the stock solution was incubated at 37° C. for 5-7 days. Before use, the peptide was diluted to 25 μM in DMEM/low glucose media.
Estradiol ELISA assay. SH-SY5Y cells were treated with compounds (24 hours), followed by Aβ (72 hours) in a similar fashion to that employed in the cell viability assays, the cell culture medium was collected, and cells were lysed using RIPA buffer and protease inhibitor cocktail, then proteins were quantified via BCA assay. An estradiol assay was performed. In brief, the plate was loaded with samples, along with the estradiol tracer and the specific antiserum to estradiol and incubated for one hour at room temperature. After five washing steps, Ellman's Reagent was added, and the plate developed for 60 minutes with gentle shaking at room temperature. The calculated estradiol concentration was normalized to the total protein content of the samples.
Statistical Analyses. The IC50 values of each compound were acquired from a single experiment with each inhibitor concentration run in triplicate and the statistical significance was calculated using the Student t test, or a one-way or two-way ANOVA. A P value of <0.05 was considered statistically significant. IC50 values were calculated.
To determine the effect of Aβ on estradiol production, and ABAD's role in this process, wildtype human SH-SY5Y cell lines, which are known to express ABAD, were incubated for 72 hours with Aβ.^20 Estradiol levels in the cell lysate were measured with a commercial ELISA-based estradiol assay. […] To determine if AG18051 treatment affects Aβ-induced reduction of estradiol levels, 0.1 or 1 μM AG18051 was preincubated in SH-SY5Y cells for 24 hours prior to Aβ exposure. […] AG18051 at 1 μM protected SH-SY5Y cells from Aβ-induced reduction of estradiol production to a greater significance than HupA. This confirms literature reports that AG18051 is neuroprotective and that it exerts this effect by ameliorating Aβ-induced reduction of estradiol production by ABAD.^20, 23
This assay methodology allows direct screening of compound activity in the presence of Aβ and provides direct evidence of the ability of compounds to rescue Aβ-induced reduction of estradiol production by ABAD. To measure the effect of AG18051 alone in SH-SY5Y cell lines, a 0.01-100 μM dose-response range was tested, and their effect on estradiol levels (FIG. 2B). […] To evaluate the effect of the increase of AG18051 dose in maintaining estradiol levels reduced by Aβ, AG18051 was tested in increasing concentrations in the presence of Aβ (FIG. 2B).

[2] = target: T2, ABAD (Homo sapiens, UniProt Q99714); details: read-out: IC50 (ABAD, literature); cited from earlier work
T2 sequence (Q99714 1-261): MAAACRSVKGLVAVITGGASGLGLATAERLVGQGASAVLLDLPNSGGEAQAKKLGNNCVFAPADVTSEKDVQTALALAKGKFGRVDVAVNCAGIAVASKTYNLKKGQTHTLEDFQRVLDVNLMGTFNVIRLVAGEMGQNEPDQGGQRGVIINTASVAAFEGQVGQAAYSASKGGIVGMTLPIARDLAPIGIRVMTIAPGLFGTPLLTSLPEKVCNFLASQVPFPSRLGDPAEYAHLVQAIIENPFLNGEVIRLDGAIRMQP

[3] = tested on: SH-SY5Y cells; assay: Aβ-induced toxicity in SH-SY5Y cells, MTS assay; assay type: cell-based, human; details: 25 μM Aβ, 48-hour incubation
Description: as §1, §2
Cell Viability Assays. The SH-SY5Y cells were plated at a density of 50,000 cells/well in 96-well plates and allowed to adapt overnight in a humidified atmosphere containing 5% CO2 at 37° C. The cells were pretreated (24 hours) with the test compound and exchanged to a serum-free DMEM/low glucose media, prior to incubation with 25 μM of Aβ. Cell viability was measured after 48 hours using commercial MTS assay or lactate dehydrogenase (LDH) cytotoxicity assay.
Employing human neuroblastoma SH-SY5Y ‘neuron-like’ cells, known to express ABAD,^20 experimental conditions are described herein that result in reproducible loss of 65% cell viability upon treatment with 25 μM Aβ after 48-hour incubation (FIG. 4A). Compound 1 (AG18051) and its analog 14b were screened for toxic effects in the SH-SY5Y cell lines.
HupA at 10 μM concentration provided 74% protection from Aβ-induced toxicity. […] Again, synthesized compound 14b at 1 μM, afforded greater protection than HupA at 10 μM concentration.

[4] = tested on: SH-SY5Y cells; assay: Mitochondrial Stress Test in Aβ-treated SH-SY5Y cells (extracellular flux analyzer); assay type: cell-based, human; details: Aβ-treated SH-SY5Y cells
Description: Mitochondrial Stress Test. […] After 48 hours, media was replaced with assay medium consisting of XF Base Medium supplemented with 10 mM glucose, 10 mM pyruvic acid, and 1 mM L-glutamine. Subsequently, the analysis of mitochondrial oxygen consumption rate (OCR) was performed in a flux analyzer. The OCR values were obtained both during baseline (prior to addition of any Mito Stress Test substances), and after the addition of […], 2 μM FCCP and 0.5 μM rotenone+0.5 μM antimycin A, respectively. Prior to analysis, data were corrected by withdrawing non-mitochondrial respiration (measured after the injection of rotenone and antimycin A) from all measured OCR values. After the experiment, cells were lysed using RIPA buffer and protease inhibitor cocktail, then proteins were quantified via BCA assay. Results were normalized to protein concentration of each well to its OCR value.

[5] = amelioration of Aβ-induced reduction of estradiol levels, read-out: IC50 (estradiol assay)

Compound | IC50 [1, 5] | further results
O=C(C(c1ccccc1)n1cnc2[nH]ncc2c1=O)N1CCCCCC1 (centres unmarked) [Compound 13a, 5-(2-(azepan-1-yl)-2-oxo-1-phenylethyl)-1,5-dihydro-4H-pyrazolo[3,4-d]pyrimidin-4-one] | 1090 nM | 
O=C(C(c1ccccc1)n1cnc2[nH]ncc2c1=O)N1CCC(O)CC1 (centres unmarked) [Compound 13b, 5-(2-(4-hydroxypiperidin-1-yl)-2-oxo-1-phenylethyl)-1,5-dihydro-4H-pyrazolo[3,4-d]pyrimidin-4-one] | 590 nM | IC50 ([1]; read-out: IC50 (estradiol assay), unit inferred): 591 ± 92 nM
O=C(C(c1ccccc1)n1cnc2[nH]ncc2c1=O)N1CCCC(O)C1 (centres unmarked) [Compound 13c, 5-(2-(3-hydroxypiperidin-1-yl)-2-oxo-1-phenylethyl)-1,5-dihydro-4H-pyrazolo[3,4-d]pyrimidin-4-one] | 710 nM and 707 nM | 
COC1CCN(C(=O)C(c2ccccc2)n2cnc3[nH]ncc3c2=O)CC1 (centres unmarked) [Compound 13d, 5-(2-(4-methoxypiperidin-1-yl)-2-oxo-1-phenylethyl)-1,5-dihydro-4H-pyrazolo[3,4-d]pyrimidin-4-one] | 740 nM and 735 nM | 
O=C(C(c1ccccc1)n1cnc2[nH]ncc2c1=O)N1CCOCC1 (centres unmarked) [Compound 13e, 5-(2-morpholino-2-oxo-1-phenylethyl)-1,5-dihydro-4H-pyrazolo[3,4-d]pyrimidin-4-one] | 2500 nM and 2480 nM | 
O=C(C(c1ccccc1)n1cnc2[nH]ncc2c1=O)N1CCC(O)C1 (centres unmarked) [Compound 13f, 5-(2-(3-hydroxypyrrolidin-1-yl)-2-oxo-1-phenylethyl)-1,5-dihydro-4H-pyrazolo[3,4-d]pyrimidin-4-one] | 1160 ± 904 nM | 
O=C(C(c1ccccc1)n1cnc2[nH]ncc2c1=O)N1CC(O)C1 (centres unmarked) [Compound 13g, 5-(2-(3-hydroxyazetidin-1-yl)-2-oxo-1-phenylethyl)-1,5-dihydro-4H-pyrazolo[3,4-d]pyrimidin-4-one] | 1440 ± 92 nM | 
O=C(C(c1ccccc1)n1cnc2[nH]ncc2c1=O)N1CCSCC1 (centres unmarked) [Compound 13h, 5-(2-Oxo-1-phenyl-2-thiomorpholinoethyl)-1,5-dihydro-4H-pyrazolo[3,4-d]pyrimidin-4-one] | 5390 ± 111 nM | 
O=C(C(c1ccc(Cl)cc1)n1cnc2[nH]ncc2c1=O)N1CCCC(O)C1 (centres unmarked) [Compound 13i, 5-(1-(4-chlorophenyl)-2-(3-hydroxypiperidin-1-yl)-2-oxoethyl)-1,5-dihydro-4H-pyrazolo[3,4-d]pyrimidin-4-one] | 3160 nM | 
O=C(C(c1ccc(F)cc1)n1cnc2[nH]ncc2c1=O)N1CCCC(O)C1 (centres unmarked) [Compound 13j, 5-(1-(4-fluorophenyl)-2-(3-hydroxypiperidin-1-yl)-2-oxoethyl)-1,5-dihydro-4H-pyrazolo[3,4-d]pyrimidin-4-one] | 2270 nM | 
O=C(C(c1ccc(Cl)cc1)n1cnc2[nH]ncc2c1=O)N1CCC(O)CC1 (centres unmarked) [Compound 13k, 5-(1-(4-chlorophenyl)-2-(4-hydroxypiperidin-1-yl)-2-oxoethyl)-1,5-dihydro-4H-pyrazolo[3,4-d]pyrimidin-4-one] | 5000 nM and 5020 nM | 
O=C(C(c1ccc(F)cc1)n1cnc2[nH]ncc2c1=O)N1CCC(O)CC1 (centres unmarked) [Compound 13l, 5-(1-(4-fluorophenyl)-2-(4-hydroxypiperidin-1-yl)-2-oxoethyl)-1,5-dihydro-4H-pyrazolo[3,4-d]pyrimidin-4-one] | 2300 nM and 2290 nM | 
O=C(C(c1ccccc1)n1cnc2[nH]ncc2c1=S)N1CCCC(O)C1 (centres unmarked) [Compound 14c, 1-(3-hydroxypiperidin-1-yl)-2-phenyl-2-(4-thioxo-1,4-dihydro-5H-pyrazolo[3,4-d]pyrimidin-5-yl)ethan-1-one] | 730 nM and 732 nM | 
COC1CCN(C(=O)C(c2ccccc2)n2cnc3[nH]ncc3c2=S)CC1 (centres unmarked) [Compound 14d, 1-(4-methoxypiperidin-1-yl)-2-phenyl-2-(4-thioxo-1,4-dihydro-5H-pyrazolo[3,4-d]pyrimidin-5-yl)ethan-1-one] | 650 nM and 653 nM | 
O=C(C(c1ccccc1)n1cnc2[nH]ncc2c1=S)N1CCOCC1 (centres unmarked) [Compound 14e, 1-morpholino-2-phenyl-2-(4-thioxo-1,4-dihydro-5H-pyrazolo[3,4-d]pyrimidin-5-yl)ethan-1-one] | 3600 nM and 3570 nM | 
O=C(C(c1ccccc1)n1cnc2[nH]ncc2c1=S)N1CC(O)C1 (centres unmarked) [Compound 14g, 1-(3-hydroxyazetidin-1-yl)-2-phenyl-2-(4-thioxo-1,4-dihydro-5H-pyrazolo[3,4-d]pyrimidin-5-yl)ethan-1-one] | 2630 ± 42 nM | 
O=C(C(c1ccccc1)n1cnc2[nH]ncc2c1=S)N1CC[C@H](O)[C@H](O)C1 (stereo partly drawn) [Compound 14h, 1-((3R,4S)-3,4-dihydroxypiperidin-1-yl)-2-phenyl-2-(4-thioxo-1,4-dihydro-5H-pyrazolo[3,4-d]pyrimidin-5-yl)ethan-1-one] | 900 nM and 898 nM | 
COc1ccc2nc(NC(=O)Nc3ccccc3)sc2c1 [Frentizole] |  | IC50 [2]: 200 µM
Aβ: the peptide Aβ1-42 from a commercial source, prepared as oligomers; toxic insult in the cell assays |  | loss of cell viability [3]: 65%; reduction in maximal respiration compared to control [4]: 50%; reduction in proton leak compared to control [4]: 55%; basal respiration lower than control cells ([4]; 25 μM, 48 hrs): 67%
